Test results published in PMC10247784, “Physiological activation of human and mouse bitter taste receptors by bile acids” (Communications Biology, 2023).
Where “and” joins values, the source holds several entries; their conditions need not be identical. Equal entries are not always repeated.

Molecular target: T1, human TAS2R14 (Homo sapiens, UniProt Q9NYV8)
T1 construct: expressed in transfected cells; host or cells: HEK293T-Gα16gust44
T1 sequence (Q9NYV8 1-317): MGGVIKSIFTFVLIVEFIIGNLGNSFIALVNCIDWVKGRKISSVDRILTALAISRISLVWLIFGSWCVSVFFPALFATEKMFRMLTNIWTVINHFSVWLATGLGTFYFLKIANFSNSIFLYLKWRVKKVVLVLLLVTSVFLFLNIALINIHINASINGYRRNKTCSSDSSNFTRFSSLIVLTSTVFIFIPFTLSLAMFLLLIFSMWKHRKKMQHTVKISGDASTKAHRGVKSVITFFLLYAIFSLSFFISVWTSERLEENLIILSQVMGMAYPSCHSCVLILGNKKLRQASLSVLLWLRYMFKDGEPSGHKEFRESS
Assay: Calcium imaging assay (FLIPR), HEK293T-Gα16gust44 cells transfected with human TAS2R14
Format: cell-based
Settings: for RLU: TAS2R14 trace
Summary of the method: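 Read-out is Fluo-4 fluorescence change (ΔF/F) after automated application of bile acids (DMSO stocks) to transiently transfected cells. Values are corrected for empty-vector cells and normalized to buffer. Dose-response from three independent experiments in duplicate; threshold concentration set at p < 0.01 versus mock.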

In the case of C[C@H](CCC(=O)O)[C@H]1CC[C@H]2[C@@H]3[C@H](O)C[C@@H]4C[C@H](O)CC[C@]4(C)[C@H]3C[C@H](O)[C@]12C [Cholic Acid, cholic acid], the “Efficacy = maximal amplitude (ΔF/F)” value (TAS2R14, bile acids, mean) is reported as 0.2451, the “Efficacy (maximal amplitude ΔF/F), individual data points” value (TAS2R14, bile acids, single replicates, listed as CA) is reported as 0.2582 and 0.2878 and 0.1894 and the RLU (Time (s) 0) is reported as 0 RLU. The RLU (Time (s) 2 (Taurocholic Acid 2.016)) was 8.733 RLU, the RLU (Time (s) 4 (Taurocholic Acid 4.016)) was -17.1002 RLU and the RLU (Time (s) 6 (Taurocholic Acid 6.016)) was -14.5682 RLU. For the same molecule, the RLU (Time (s) 8 (Taurocholic Acid 8.016)) was -36.4848 RLU, the RLU (Time (s) 12 (Taurocholic Acid 12.016)) was -26.3442 RLU and the RLU (Time (s) 14 (Taurocholic Acid 14.016)) was -33.528 RLU. The RLU (Time (s) 16 (Taurocholic Acid 16.016)) was -31.0627 RLU, the RLU (Time (s) 18 (Taurocholic Acid 18.016)) was -30.2662 RLU and the RLU (Time (s) 18.797 (Chenodeoxycholic Acid 18.765)) was -22.7559 RLU. It also gave an RLU (Time (s) 20.797 (Chenodeoxycholic Acid 20.781)) of -44.5987 RLU, an RLU (Time (s) 22.797 (Chenodeoxycholic Acid 22.781)) of 9.863 RLU and an RLU (Time (s) 24.797 (Chenodeoxycholic Acid 24.781)) of -6.39 RLU. For the same molecule, the RLU (Time (s) 26.797 (Chenodeoxycholic Acid 26.781)) was 16.5716 RLU, the RLU (Time (s) 28.797 (Chenodeoxycholic Acid 28.781)) was 41.6203 RLU and the RLU (Time (s) 30.797 (Chenodeoxycholic Acid 30.781)) was 60.9467 RLU. The RLU (Time (s) 32.797 (Chenodeoxycholic Acid 32.781)) was 99 RLU, the RLU (Time (s) 34.797 (Chenodeoxycholic Acid 34.781)) was 154.774 RLU and the RLU (Time (s) 36.797 (Chenodeoxycholic Acid 36.781)) was 189.099 RLU. The RLU (Time (s) 38.797 (Chenodeoxycholic Acid 38.781)) was 207.548 RLU, the RLU (Time (s) 40.797 (Chenodeoxycholic Acid 40.781)) was 286.95 RLU and the RLU (Time (s) 42.797 (Chenodeoxycholic Acid 42.781)) was 332.949 RLU. For the same molecule, the RLU (Time (s) 44.797 (Chenodeoxycholic Acid 44.781)) was 381.413 RLU, the RLU (Time (s) 46.797 (Chenodeoxycholic Acid 46.781)) was 432.303 RLU and the RLU (Time (s) 48.797 (Chenodeoxycholic Acid 48.781)) was 481.551 RLU. It also gave an RLU (Time (s) 50.797 (Chenodeoxycholic Acid 50.781)) of 522.709 RLU, an RLU (Time (s) 52.797 (Chenodeoxycholic Acid 52.781)) of 573.985 RLU and an RLU (Time (s) 54.797 (Chenodeoxycholic Acid 54.781)) of 600.804 RLU. It also gave an RLU (Time (s) 56.797 (Chenodeoxycholic Acid 56.781)) of 603.138 RLU, an RLU (Time (s) 58.797 (Chenodeoxycholic Acid 58.781)) of 677.301 RLU and an RLU (Time (s) 60.797 (Chenodeoxycholic Acid 60.781)) of 689.232 RLU. The RLU (Time (s) 62.797 (Chenodeoxycholic Acid 62.781)) was 740.761 RLU, the RLU (Time (s) 64.797 (Chenodeoxycholic Acid 64.781)) was 760.673 RLU and the RLU (Time (s) 66.797 (Chenodeoxycholic Acid 66.781)) was 793.47 RLU. For the same molecule, the RLU (Time (s) 68.797 (Chenodeoxycholic Acid 68.781)) was 795.682 RLU, the RLU (Time (s) 70.797 (Chenodeoxycholic Acid 70.781)) was 846.508 RLU and the RLU (Time (s) 72.797 (Chenodeoxycholic Acid 72.781)) was 873.655 RLU. It also gave an RLU (Time (s) 74.797 (Chenodeoxycholic Acid 74.781)) of 945.307 RLU, an RLU (Time (s) 76.797 (Chenodeoxycholic Acid 76.781)) of 951.601 RLU and an RLU (Time (s) 78.797 (Chenodeoxycholic Acid 78.781)) of 969.484 RLU. It also gave an RLU (Time (s) 80.797 (Chenodeoxycholic Acid 80.781)) of 1026.08 RLU, an RLU (Time (s) 82.797 (Chenodeoxycholic Acid 82.781)) of 1051.68 RLU and an RLU (Time (s) 84.797 (Chenodeoxycholic Acid 84.781)) of 1028.13 RLU. The RLU (Time (s) 86.797 (Chenodeoxycholic Acid 86.781)) was 1075.38 RLU, the RLU (Time (s) 88.797 (Chenodeoxycholic Acid 88.781)) was 1071.24 RLU and the RLU (Time (s) 90.797 (Chenodeoxycholic Acid 90.781)) was 1092.31 RLU. For the same molecule, the RLU (Time (s) 92.797 (Chenodeoxycholic Acid 92.781)) was 1143.7 RLU, the RLU (Time (s) 94.797 (Chenodeoxycholic Acid 94.781)) was 1154.9 RLU and the RLU (Time (s) 96.797 (Chenodeoxycholic Acid 96.781)) was 1163.63 RLU. It also gave an RLU (Time (s) 98.797 (Chenodeoxycholic Acid 98.781)) of 1184.89 RLU, an RLU (Time (s) 100.797 (Chenodeoxycholic Acid 100.781)) of 1211.25 RLU and an RLU (Time (s) 102.797 (Chenodeoxycholic Acid 102.781)) of 1207.36 RLU. For the same molecule, the RLU (Time (s) 104.797 (Chenodeoxycholic Acid 104.781)) was 1232.88 RLU, the RLU (Time (s) 106.797 (Chenodeoxycholic Acid 106.781)) was 1256.04 RLU and the RLU (Time (s) 108.797 (Chenodeoxycholic Acid 108.781)) was 1236.19 RLU. For the same molecule, the RLU (Time (s) 110.797 (Chenodeoxycholic Acid 110.781)) was 1242.72 RLU, the RLU (Time (s) 112.797 (Chenodeoxycholic Acid 112.781)) was 1266.26 RLU and the RLU (Time (s) 114.797 (Chenodeoxycholic Acid 114.781)) was 1269.15 RLU. For the same molecule, the RLU (Time (s) 116.797 (Chenodeoxycholic Acid 116.781)) was 1265.61 RLU, the RLU (Time (s) 118.797 (Chenodeoxycholic Acid 118.781)) was 1260.33 RLU and the RLU (Time (s) 120.797 (Chenodeoxycholic Acid 120.781)) was 1305.24 RLU. For the same molecule, the RLU (Time (s) 122.797 (Chenodeoxycholic Acid 122.781)) was 1269.8 RLU, the RLU (Time (s) 124.797 (Chenodeoxycholic Acid 124.781)) was 1271.64 RLU and the RLU (Time (s) 126.797 (Chenodeoxycholic Acid 126.781)) was 1263.68 RLU. For the same molecule, the RLU (Time (s) 128.797 (Chenodeoxycholic Acid 128.781)) was 1291.8 RLU, the RLU (Time (s) 130.797 (Chenodeoxycholic Acid 130.781)) was 1262.68 RLU and the RLU (Time (s) 132.797 (Chenodeoxycholic Acid 132.781)) was 1269.55 RLU. For the same molecule, the RLU (Time (s) 134.797 (Chenodeoxycholic Acid 134.781)) was 1262.84 RLU, the RLU (Time (s) 136.797 (Chenodeoxycholic Acid 136.781)) was 1277.95 RLU and the RLU (Time (s) 137.562 (Taurocholic Acid 137.563, Chenodeoxycholic Acid 137.546)) was 1261.13 RLU. The RLU (Time (s) 143.578 (Taurocholic Acid 143.563, Chenodeoxycholic Acid 143.546)) was 1235.79 RLU, the RLU (Time (s) 149.578 (Taurocholic Acid 149.563, Chenodeoxycholic Acid 149.546)) was 1235.83 RLU and the RLU (Time (s) 155.578 (Taurocholic Acid 155.563, Chenodeoxycholic Acid 155.546)) was 1156.37 RLU. The RLU (Time (s) 161.578 (Taurocholic Acid 161.563, Chenodeoxycholic Acid 161.546)) was 1154.38 RLU, the RLU (Time (s) 167.578 (Taurocholic Acid 167.563, Chenodeoxycholic Acid 167.546)) was 1122.87 RLU and the RLU (Time (s) 173.578 (Taurocholic Acid 173.563, Chenodeoxycholic Acid 173.546)) was 1009.37 RLU. The RLU (Time (s) 179.578 (Taurocholic Acid 179.563, Chenodeoxycholic Acid 179.546)) was 994.85 RLU, the RLU (Time (s) 191.578 (Taurocholic Acid 191.563, Chenodeoxycholic Acid 191.546)) was 855.583 RLU and the RLU (Time (s) 197.578 (Taurocholic Acid 197.563, Chenodeoxycholic Acid 197.546)) was 818.047 RLU. The RLU (Time (s) 209.578 (Taurocholic Acid 209.563, Chenodeoxycholic Acid 209.546)) was 723.754 RLU, the RLU (Time (s) 221.578 (Taurocholic Acid 221.563, Chenodeoxycholic Acid 221.546)) was 629.159 RLU and the RLU (Time (s) 233.578 (Taurocholic Acid 233.563, Chenodeoxycholic Acid 233.546)) was 528.668 RLU. The RLU (Time (s) 239.578 (Taurocholic Acid 239.563, Chenodeoxycholic Acid 239.546)) was 477.512 RLU, the RLU (Time (s) 245.578 (Taurocholic Acid 245.563, Chenodeoxycholic Acid 245.546)) was 438.571 RLU and the RLU (Time (s) 293.578 (Taurocholic Acid 293.563, Chenodeoxycholic Acid 293.546)) was 221.346 RLU. For the same molecule, the RLU (Time (s) 299.578 (Taurocholic Acid 299.563, Chenodeoxycholic Acid 299.546)) was 202.892 RLU, the RLU (Time (s) 305.578 (Taurocholic Acid 305.563, Chenodeoxycholic Acid 305.546)) was 181.254 RLU and the RLU (Time (s) 311.578 (Taurocholic Acid 311.563, Chenodeoxycholic Acid 311.546)) was 152.075 RLU. It also gave an RLU (Time (s) 317.578 (Taurocholic Acid 317.563, Chenodeoxycholic Acid 317.546)) of 165.461 RLU, an RLU (Time (s) 323.578 (Taurocholic Acid 323.563, Chenodeoxycholic Acid 323.546)) of 152.075 RLU and an RLU (Time (s) 329.578 (Taurocholic Acid 329.563, Chenodeoxycholic Acid 329.546)) of 111.269 RLU. The RLU (Time (s) 335.578 (Taurocholic Acid 335.563, Chenodeoxycholic Acid 335.546)) was 88.8846 RLU, the RLU (Time (s) 341.578 (Taurocholic Acid 341.563, Chenodeoxycholic Acid 341.546)) was 75.1088 RLU and the RLU (Time (s) 347.578 (Taurocholic Acid 347.563, Chenodeoxycholic Acid 347.546)) was 60.0955 RLU. The RLU (Time (s) 353.578 (Taurocholic Acid 353.563, Chenodeoxycholic Acid 353.546)) was 37.7794 RLU, the RLU (Time (s) 359.578 (Taurocholic Acid 359.563, Chenodeoxycholic Acid 359.546)) was 47.6877 RLU and the “Activation threshold concentration TAS2R14” value (lowest concentration with significantly increased fluorescence vs empty vector (p < 0.01)) was 300 µM.
